The structures appear in SMILES notation. Some results are limits rather than exact numbers.

For data set [1], the target named is T1, Recombinant human PI3Kγ (full length human PI3K p110γ) (Homo sapiens, UniProt P48736).
T1 construct: full length human PI3K p110γ fused with a His6-tag at the C-terminus; His6 (C); purchased ALEXIS BIOCHEMICALS #201-055-C010; host or cells: S. frugiperda 9 insect cells
The data set is described as follows: Kinase assay of PI3Kγ (solid-phase lipid kinase assay). To be noted: Table 1, isozyme not given; read-out: in vitro. Type of data set: biochemical. From the text: [Determination of IC50 Values of Compounds in Kinase Assay of PI3Kγ]
Chemicals and Assay Materials
LABORATORIES (Toronto, Canada). Recombinant human PI3Kγ (full length human PI3K p110γ fused with a His6-tag at the C-terminus expressed in S. frugiperda 9 insect cells) was obtained from ALEXIS BIOCHEMICALS (#201-055-C010; San Diego, Calif.). […] BIOTECH (Buckinghamshire, UK) and ROCHE DIAGNOSTICS (Mannheim, Germany), respectively. Scintillation cocktails and MicroScint PS™ were purchased from PACKARD (Meriden, Conn.). Maxisorp™ plates were purchased from NALGE NUNC INTERNATIONAL K.K. (Tokyo, Japan). All other chemicals not further specified were from WAKO PURE CHEMICALS (Osaka, Japan).
Solid-Phase Lipid Kinase Assay
The plates were subsequently air-dried by incubation for at least 2 hours in a fume hood. The reaction was set up by mixing 25 μl/well of assay buffer 2× (100 mM MOPSO/NaOH, 0.2 M NaCl, pH 7.0, 8 mM MgCl2, 2 mg/ml BSA (fatty acid-free)) and 50 ng/well PI3Kγ in the lipid pre-coated plate and 10× test compounds were added in 2% DMSO. The reaction was started by adding 20 μl/well of ATP mix (final 10 μM ATP; 0.05 μCi/well [γ^33P]ATP). After incubation at RT for 2 hours, the reaction was terminated by adding 50 μl/well stop solution (50 mM EDTA, pH 8.0). The plate was then washed twice with Tris-buffered saline (TBS, pH 7.4). MicroScint PS™ (PACKARD) scintillation mix was added at 100 μl/well, and radioactivity was counted by using a TopCount™ (PACKARD) scintillation counter.
The inhibition percent at each concentration of compound was calculated, and IC50 values were determined from the inhibition of curve.

T1 sequence (P48736 whole entry, the tested form may be a part): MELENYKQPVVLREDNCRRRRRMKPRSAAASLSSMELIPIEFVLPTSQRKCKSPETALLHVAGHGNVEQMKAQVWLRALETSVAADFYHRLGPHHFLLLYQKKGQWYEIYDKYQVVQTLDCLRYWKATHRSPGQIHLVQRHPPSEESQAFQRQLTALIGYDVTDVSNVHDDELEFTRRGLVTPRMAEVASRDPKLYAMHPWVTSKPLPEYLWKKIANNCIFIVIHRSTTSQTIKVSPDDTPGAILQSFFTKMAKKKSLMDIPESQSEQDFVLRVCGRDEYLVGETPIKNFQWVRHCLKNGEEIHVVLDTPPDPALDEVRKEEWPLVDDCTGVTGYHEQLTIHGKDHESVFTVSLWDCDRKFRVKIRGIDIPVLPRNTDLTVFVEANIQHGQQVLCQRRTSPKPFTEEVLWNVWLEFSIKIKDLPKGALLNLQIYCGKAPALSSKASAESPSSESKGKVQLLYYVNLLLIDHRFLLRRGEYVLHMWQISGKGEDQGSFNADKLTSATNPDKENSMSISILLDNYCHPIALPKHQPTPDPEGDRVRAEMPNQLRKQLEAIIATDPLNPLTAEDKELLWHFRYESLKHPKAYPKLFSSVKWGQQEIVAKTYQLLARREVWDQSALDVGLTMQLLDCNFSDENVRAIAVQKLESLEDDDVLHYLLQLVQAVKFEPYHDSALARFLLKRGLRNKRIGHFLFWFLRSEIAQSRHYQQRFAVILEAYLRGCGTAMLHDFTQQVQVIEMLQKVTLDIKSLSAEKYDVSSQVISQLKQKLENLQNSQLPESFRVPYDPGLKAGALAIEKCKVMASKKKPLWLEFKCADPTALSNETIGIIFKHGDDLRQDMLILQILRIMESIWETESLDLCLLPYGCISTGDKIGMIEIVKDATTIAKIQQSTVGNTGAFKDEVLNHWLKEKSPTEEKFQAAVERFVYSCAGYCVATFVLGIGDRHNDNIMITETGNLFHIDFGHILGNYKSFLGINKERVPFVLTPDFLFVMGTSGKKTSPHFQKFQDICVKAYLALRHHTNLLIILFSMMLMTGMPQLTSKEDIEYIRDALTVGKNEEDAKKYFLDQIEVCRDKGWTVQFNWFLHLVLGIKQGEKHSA

Regarding `Cl.O/C(=C\C1=Nc2ccc(O)cc2C2=NCCN12)c1cccnc1` [Example 1-125], the melting point was above 300 °C. Besides, in data set [1], the IC50 is below 100 nM.
In the same order, the values of `COc1ccc2c(c1)C1=NCCN1C(/C=C(\O)c1cccnc1)=N2` [Example 1-126] are 199 °C and 100 to 500 nM.
`Cl.NCC(=O)Oc1ccc2c(c1)C1=NCCN1C(/C=C(\O)c1cccnc1)=N2` [Example 1-128] showed a melting point above 300 °C. Besides, the IC50 in data set [1] was below 100 nM.
As for `Cl.O/C(=C\C1=Nc2ccc(Br)cc2C2=NCCN12)c1cccnc1` [Example 1-129], the melting point was above 300 °C. Further, the IC50 in data set [1] lay in the range of 100 to 500 nM.
In the same order, the values of `Cc1ccc2c(c1)C1=NCCN1C(/C=C(\O)c1cccnc1)=N2` [Example 1-131] are 212 °C and 100 to 500 nM.
In the same order, the values of `CC(=O)Nc1ccc(/C(O)=C/C2=Nc3ccccc3C3=NCCN23)cc1` [Example 1-133] are above 300 °C and 100 to 500 nM.
In the same order, the values of `O/C(=C\C1=Nc2ccccc2C2=NCCN12)c1cccnc1` [Example 1-134] are 202 °C and 100 to 500 nM.
Turning to `Cc1ccc(/C(O)=C/C2=Nc3ccccc3C3=NCCN23)cn1` [Example 1-136], the melting point fell in the range of 217 to 219 °C. For the same molecule, the IC50 in data set [1] was 100 to 500 nM.
In the same order, the values of `CC(=O)Nc1ccc(/C(O)=C/C2=Nc3ccccc3C3=NCCN23)cn1.Cl` [Example 1-138] are 327 °C and below 100 nM.
In the same order, the values of `CNc1ccc(/C(O)=C/C2=Nc3ccccc3C3=NCCN23)cn1` [Example 1-139] are 232 to 237 °C and below 100 nM.
In the same order, the values of `CCCNc1ccc(/C(O)=C/C2=Nc3ccccc3C3=NCCN23)cn1` [Example 1-140] are 197 °C and 100 to 500 nM.
Take `O/C(=C\C1=Nc2ccccc2C2=NCCN12)c1cnccn1` [Example 1-141]: the melting point fell in the range of 233 to 235 °C. The IC50 in data set [1] was in the range of 100 to 500 nM.
In the same order, the values of `O/C(=C\C1=Nc2ccccc2C2=NCCN12)c1ccco1` [Example 1-143] are 192 °C and 100 to 500 nM.
In the same order, the values of `O/C(=C\C1=Nc2ccccc2C2=NCCN12)c1ccoc1` [Example 1-145] are 155 to 156 °C and 100 to 500 nM.
In turn, `O/C(=C\C1=Nc2ccccc2C2=NCCN12)c1cccs1` [Example 1-146] registered a melting point of 193 °C. The IC50 in data set [1] was below 100 nM.
In the same order, the values of `O/C(=C\C1=Nc2ccccc2C2=NCCN12)c1ccsc1` [Example 1-148] are 182 to 183 °C and 100 to 500 nM.
In the same order, the values of `Cl.O/C(=C\C1=Nc2ccccc2C2=NCCN12)c1ccsc1` [Example 1-149] are above 300 °C and below 100 nM.
In the same order, the values of `O/C(=C\C1=Nc2ccccc2C2=NCCN12)c1ccc[nH]1` [Example 1-150] are 247 °C and 100 to 500 nM.
Molecule `O/C(=C\C1=Nc2ccccc2C2=NCCN12)c1cc[nH]c1` [Example 1-151] returned a melting point of 247 to 249 °C. For the same molecule, the IC50 in data set [1] is below 100 nM.
In the same order, the values of `O/C(=C\C1=Nc2ccccc2C2=NCCN12)c1ccno1` [Example 1-152] are 148 °C and 100 to 500 nM.
In the same order, the values of `O/C(=C\C1=Nc2ccccc2C2=NCCN12)c1nccs1` [Example 1-154] are 208 to 210 °C and below 100 nM.
In the same order, the values of `Cl.O/C(=C\C1=Nc2ccccc2C2=NCCN12)c1nccs1` [Example 1-155] are above 300 °C and 100 to 500 nM.
`Cc1nc(C)c(/C(O)=C/C2=Nc3ccccc3C3=NCCN23)s1` [Example 1-156] had a melting point of 222 °C. Also, in data set [1], the IC50 was below 100 nM.
In the same order, the values of `Cl.O/C(=C\C1=Nc2ccccc2C2=NCCN12)c1ccc2[nH]cnc2c1` [Example 1-157] are above 300 °C and 100 to 500 nM.
In the same order, the values of `O/C(=C\C1=Nc2ccccc2C2=NCCN12)C(Cl)(Cl)Cl` [Example 1-158] are 190 °C (dec.) and 100 to 500 nM.
In the same order, the values of `O/C(=C\C1=Nc2ncccc2C2=NCCN12)c1ccc2[nH]cnc2c1` [Example 1-159] are above 300 °C and below 100 nM.
Regarding `Cl.O/C(=C\C1=Nc2ncccc2C2=NCCN12)c1ccc2[nH]cnc2c1` [Example 1-160], the melting point was 247 °C (dec.). In addition, in data set [1], the IC50 is 100 to 500 nM.
With `CC(=O)Nc1ccc(/C(O)=C/C2=Nc3nc(C)ccc3C3=NCCN23)cn1` [Example 1-161], the melting point is above 300 °C. Further, the IC50 in data set [1] was 100 to 500 nM.
In the same order, the values of `CC(C)(C)OC(=O)CCc1ccc2c(n1)N=C(/C=C(\O)c1cccnc1)N1CCN=C21` [Example 1-163] are 200 °C and 100 to 500 nM.
In the same order, the values of `O/C(=C\C1=Nc2cnccc2C2=NCCN12)c1cccnc1` [Example 1-164] are 230 °C and 100 to 500 nM.
As to `O/C(=C\C1=Nc2ccncc2C2=NCCN12)c1cccnc1` [Example 1-165], the melting point came to 250 °C. In addition, the IC50 in data set [1] is 100 to 500 nM.
In the same order, the values of `O/C(=C\C1=Nc2ccccc2C2=NCCN12)c1ccccc1` [Example 1-166] are 130 to 139 °C and 500 to 2000 nM.
In the same order, the values of `O=[N+]([O-])c1cccc(/C(O)=C/C2=Nc3ccccc3C3=NCCN23)c1` [Example 1-167] are 276 °C and above 2000 nM.
In the same order, the values of `O=[N+]([O-])c1ccc(/C(O)=C/C2=Nc3ccccc3C3=NCCN23)cc1` [Example 1-168] are 240 to 248 °C and above 2000 nM.
Turning to `COc1ccc(/C(O)=C/C2=Nc3ccccc3C3=NCCN23)cc1` [Example 1-169], the melting point lay within 212 to 214 °C. Also, in data set [1], the IC50 was above 2000 nM.
Molecule `O/C(=C\C1=Nc2ccccc2C2=NCCN12)c1ccccc1O` [Example 1-170] showed a melting point of 252 to 256 °C. In addition, the IC50 in data set [1] is above 2000 nM.
`O/C(=C\C1=Nc2ccccc2C2=NCCN12)c1cccc(Cl)c1` [Example 1-171] registered a melting point of 224 to 227 °C. For the same molecule, in data set [1], the IC50 is above 2000 nM.
As to `N#Cc1ccc(/C(O)=C/C2=Nc3ccccc3C3=NCCN23)cc1` [Example 1-172], the melting point lay within 260 to 264 °C. Besides, the IC50 in data set [1] is above 2000 nM.
In the same order, the values of `O/C(=C\C1=Nc2ccccc2C2=NCCN12)c1ccccn1` [Example 1-173] are 195 °C and 500 to 2000 nM.
In the same order, the values of `O/C(=C\C1=Nc2ccccc2C2=NCCN12)c1ccncc1` [Example 1-175] are 204 to 205 °C and 100 to 500 nM.
In the same order, the values of `N#Cc1ccc(/C(O)=C/C2=Nc3ccccc3C3=NCCN23)s1` [Example 1-177] are 256 °C and 500 to 2000 nM.
Turning to `O=[N+]([O-])c1cc(/C(O)=C/C2=Nc3ccccc3C3=NCCN23)cs1` [Example 1-178], the melting point was 255 to 258 °C. For the same molecule, the IC50 in data set [1] is above 2000 nM.
In the same order, the values of `Cc1nc(NC(=O)OC(C)(C)C)sc1/C(O)=C/C1=Nc2ccccc2C2=NCCN12` [Example 1-179] are above 300 °C and above 2000 nM.
In the same order, the values of `O/C(=C\C1=Nc2ccccc2C2=NCCN12)c1csc2ccccc12` [Example 1-180] are 220 to 225 °C and above 2000 nM.
Regarding `CCC/C(O)=C/C1=Nc2ccccc2C2=NCCN12` [Example 1-182], the melting point was 113 °C. In addition, the IC50 in data set [1] was above 2000 nM.
As for `CC(C)(C)/C(O)=C/C1=Nc2ccccc2C2=NCCN12` [Example 1-183], the melting point lay within 134 to 138 °C. Moreover, in data set [1], the IC50 was 500 to 2000 nM.
`O/C(=C\C1=Nc2ccccc2C2=NCCN12)C(F)(F)F` [Example 1-184]: the melting point was determined as 240 °C. In addition, the IC50 in data set [1] fell in the range of 500 to 2000 nM.
`COc1cc2c(cc1OC)C1=NCCN1C(/C=C(\O)c1ccccc1)=N2` [Example 1-185] came in with a melting point of 249 to 252 °C. For the same molecule, the IC50 in data set [1] is 500 to 2000 nM.
In the same order, the values of `COc1cc2c(cc1OC)C1=NCCN1C(/C=C(\O)c1cccc(Cl)c1)=N2` [Example 1-186] are 257 to 259 °C and above 2000 nM.
Consider `COc1cc2c(cc1OC)C1=NCCN1C(/C=C(\O)c1ccc(C#N)cc1)=N2` [Example 1-187], for which the melting point lay in the range of 307 to 308 °C. The IC50 in data set [1] is above 2000 nM.

(Values after patent US7511041B2, “Fused azole-pyrimidine derivatives” (Bayer Pharmaceuticals Corporation, priority 2002, dated 2009).)
